This note sets out measurements from US4122199A, “Amides of pyrrolidinoethylamine which can be used in treatment of coughs” (Pierre Fabre S.A., priority 1976, dated 1978).

One data set can be described thus: in vivo. As to conditions: mouse, in vivo, mice, isotonic aqueous solution. The method, then: It is determined on mice, the products being administered orally, intraperitoneally, and intraveneously in isotonic aqueous solution.
Data set [1] can be described thus: Solubility characteristics. Type of data set: physicochemical.
The subject of a further data set is Pseudomonas aeruginosa. Kind of data set: Fungistatic/bacteriostatic effect, Pseudomonas aeruginosa. Type of data set: cell-based. As to conditions: compared with S. aureus and E. coli. On the procedure:
(§1) The determination of fungistatic bacteriostatic properties was carried out by two methods on four strains:
(§2) Halved serial dilutions are formed in a hemoylsis tube, in each case to a volume of 1 ml; each dilution is inoculated with 10^6 micro-organisms per ml. After 48 hours in the oven, the minimum inhibitory concentration is determined. A subculture of the negative tubes (bacteriostatic), makes it possible to note the bactericidal concentration.

The test system of a further data set is micro-organisms. Kind of data set: Bactericidal action (subculture of the negative tubes). Type of data set: cell-based. As to conditions: at concentrations of 1 g percent. On the procedure: as §1, §2
For a further data set, the system named is mice. The experiment in a line: Antalgic properties: decrease in contortions caused by phenyl benzoquinone, in mice. Type of data set: in vivo. As to conditions: 150 mg/kg by mouth. The method, then: The antalgic properties with respect to a decrease in contortions caused by phenyl benzoquinone, as measured in mice, are very clear from the 150 mg/kg by mouth in the case of F 1534 (40% decrease), F 1539 (75% decrease), and F 1541 (60% decrease).

Data set [2] in a line: Local anesthesia activity. As to conditions: compared with procaine.
Another data set concerns Candida albicans. The experiment in a line: Fungistatic/bacteriostatic effect, Candida albicans. As to conditions: compared with S. aureus and E. coli. Type of data set: cell-based. The method, then:
as §1, §2

The nature of data set [3]: Hygroscopicity of crystals. Type of data set: physicochemical.
In the next data set the test system is guinea pigs. The experiment in a line: Citric acid aerosol method on guinea pigs (antitussive). Type of data set: in vivo. As to conditions: orally, citric acid aerosol. On the procedure: The animals were subjected to a 20% citric acid aerosol for 15 minutes.
The coughs were recorded by a microphone.
The products were administered intraperitoneally 20 minutes before the exposure to the aerosol.
Some derivatives were also tested orally.

The mark [4] stands for this setting: ip, intraperitoneal, read-out: DL 50 intraperitoneal.

Structures can show the parent of a compound that is named as a salt. Where two headings read alike, the source gives them in different places.

Turning to `O=C(NCCN1CCCC1)C1c2ccccc2Oc2ccccc21` [F 1534, N(2'-pyrrolidino-ethyl)-9-xanthene carboxamide hydrochloride], the LD50 in the data set “in vivo” (setting [4]) was 178 mg/kg; in “in vivo” (po, oral, read-out: DL 50 oral), 750 mg/kg. The molecule further came in with a Solubility in ethanol in data set [1] (% soluble) of 10%. The “Solubility in propylene glycol” value in data set [1] (% soluble) came to 10%. Further, the Solubility in water entry in [1] (in words) is given as “very soluble”. Besides, in the data set on Pseudomonas aeruginosa, the “effect on Pseudomonas aeruginosa” value was “more moderate but significant effect”. In addition, the bactericidal action entry with micro-organisms was “real and significant”. Also, the “decrease in contortions caused by phenyl benzoquinone” value (shortened to “decrease in contortions caused”) with mice is on record as 40%. For the same molecule, the local anesthesia activity entry in data set [2] was “high order of local anesthesia activity comparable to that of procaine”. In the data set with Candida albicans, the “effect on Candida albicans” value was “more moderate but significant effect”.

`CC(C)(Oc1ccc(Cl)cc1)C(=O)NCCN1CCCC1` [F 1541, N(2'-pyrrolidino-ethyl)-4-chloro-phenoxy-isobutyramide hydrochloride]: the LD50 in the data set “in vivo” (setting [4]) came to 178 mg/kg. Moreover, the LD50 in “in vivo” (po, oral, read-out: DL 50 oral) is 562 mg/kg. Further, in data set [1] (in words), the Solubility in ethanol result is listed as “Soluble”, the “Solubility in propylene glycol” value is given as “Soluble” and the Solubility in water result is “Soluble”. Also, the “decrease in contortions caused” value with mice was determined as 60%. The local anesthesia activity result in [2] is on record as “high order of local anesthesia activity comparable to that of procaine”.

On to `O=C(NCCN1CCCC1)C(O)(c1ccccc1)c1ccccc1` [F 1535, N(2'-pyrrolidino-ethyl)-α,α-diphenyl-hydroxy-acetamide hydrochloride], for which the LD50 in “in vivo” (setting [4]) came out at 237 mg/kg; in “in vivo” (oral, read-out: DL 50 oral), 562 mg/kg. Besides, in data set [1] (in words), the Solubility in water entry is “very soluble”. For the same molecule, the local anesthesia activity result in data set [2] is given as “high order of local anesthesia activity comparable to that of procaine”.

For the molecule `CCC(C(=O)NCCN1CCCC1)c1ccccc1` (stereo not drawn) [F 1419, N(2'-pyrrolidino-ethyl)-α-phenyl-α-ethyl acetamide hydrochloride], the LD50 in the data set “in vivo” (setting [4]) worked out at 200 mg/kg; in “in vivo” (iv, intravenous, read-out: DL 50 intravenous), 76 mg/kg; in “in vivo” (po, oral, read-out: DL 50 oral), 660 mg/kg. Further, the “Solubility in N-methyl pyrrolidone” value in data set [1] (N-methyl pyrrolidone, % soluble) came out at 7%. The same molecule returned a Solubility in ethanol in data set [1] (% soluble) of 15%. Also, the Solubility in ether entry in data set [1] (ether, in words) is recorded as “insoluble”. The “Solubility in propylene glycol” value in data set [1] (% soluble) worked out at 25%. Besides, in data set [1] (in words), the Solubility in water entry was “very soluble”. Moreover, the Hygroscopicity entry in [3] is on record as “slightly hygroscopic”. Moreover, the “% decrease in no. coughs in 15 mins.” value with guinea pigs (50 mg/kg) was -22; in the data set with guinea pigs (100 mg/kg), -40.

With `O=C(COc1ccc(Cl)cc1)NCCN1CCCC1` [F 1539, N(2'-pyrrolidino-ethyl)-4-chloro-phenoxy-acetamide hydrochloride], in “in vivo” (setting [4]), the LD50 was found to be 178 mg/kg. Moreover, in “in vivo” (po, oral, read-out: DL 50 oral), the LD50 came out at 1000 mg/kg. In addition, in data set [1] (in words), the Solubility in ethanol result was “soluble”, the “Solubility in propylene glycol” value is given as “soluble” and the Solubility in water entry is recorded as “soluble”. For the same molecule, the “decrease in contortions caused” value in the data set on mice came out at 75%.
